Results: patent US20130331389A1, “Methods and Compositions for Cardiomyocyte Replenishment by Endogenous and Progenitor Stem Cells” (NATIONAL CHENG KUNG UNIVERSITY, priority 2012, published 2013)

Columns and labels:
[1] = tested on: MerCreMer/ZEG (M/Z) mice; assay: Cardiomyocyte replenishment after myocardial infarction, GFP+ / β-Gal+ cardiomyocyte counting; format: in vivo, mouse
Procedure: All experiments involving animals were conducted in accordance with the Guide for the Use and Care of Laboratory Animals, and all animal protocols have been approved by National Cheng Kung University. Sca-1^− GFP, B6.Cg-Tg(Ly6a-GFP)G5Dzk/J and EP2^−/−, B6.129-Ptger2^tm/Brey/J mice were obtained from Jackson Laboratory. The double transgenic MerCreMer/ZEG (M/Z) mice were generated by crossbreeding MerCreMer and Z/EG mice (Jackson Laboratory), which have C57BL/6SV129 and C57BL/6J (N7) background strains, respectively. The MerCreMer mice contain a tamoxifen-inducible Cre recombinase fusion protein driven by the cardiomyocyte-specific α-MHC promoter. In Z/EG mice, GFP replace constitutive β-Gal expression after the removal of a LoxP-flanked stop sequence by Cre.
M/Z mice were subjected to experimental myocardial infarction (MI) one month after the last tamoxifen injection. MI was generated by ligating the left anterior descending coronary artery at 2-3 mm distal to the left atrial appendage. For cell transplantation experiments, intramyocardial injections were performed immediately after coronary ligation. A total of 6×10^5 cardiac Sca-1^+ cells were injected per mouse in two divided injections (5 μl/injection). For BrdU labeling, the mice were subcutaneously implanted with osmotic minipump (Alzet) at the time of surgery and 40 μg/μl of BrdU (Sigma) was administrated. For immunohistological studies, mice were sacrificed and the hearts were harvested at different time points following experimental MI surgery. Cardiac performances were assessed by echocardiography at 28 and 56 days after operation using Vevo 770 (Visualsonics, Toronto, Canada).
(§1) To induce Cre recombination to achieve GFP labeling of cardiomyocytes, tamoxifen (Sigma) was dissolved in sunflower oil (Sigma) at a concentration of 5 mg/ml. The tamoxifen solution was injected intraperitoneally into M/Z mice daily at a dosage of 40 μg per 1 g body weight for 14 days, and the same dosage was injected twice daily for short-term labeling using methods known in the art (Laugwitz, K.-L. et al. Nature 433, 647-653 (2005)). All experimental conditions were optimized prior to the PGE2, indomethacin and TGF-β Type I Receptor Kinase Inhibitor II (ALK5 Inhibitor II, ALK5i, Merck) treatments. The mice treated with PGE2 or PGI2 (Vegiopoulos, A. et al. Science 328, 1158-1161 (2010)) (both from Sigma) were injected intraperitoneally with 3.33 ng of drug per 1 g of body weight dissolved in absolute ethanol twice daily. For the indomethacin treatment, mice were fed with water containing indomethacin (Sigma, 15 μg/ml) for different periods of time. The indomethacin-containing water was changed every 3 days. The mice subjected to the celecoxib (Lyons, T. R. et al. Nat. Med. 17, 1109-1115 (2011)) (Sigma) treatment were injected intraperitoneally with 5 μg of drug per 1 g of body weight daily. For ALK5i treatment, aged mice were injected intraperitoneally once per day with 1 μg of drug per 1 g of body weight one day before surgery and continuously until day 10 post-MI. Celecoxib and ALK5i were dissolved in ethanol and DMSO, respectively.
All of the cellular quantifications were performed double-blindly to minimize personal bias. […] For the cardiomyocyte cell counts, 3 sections from each heart, and 2 infarction border zones and 1 remote area from each section were analyzed at a magnification of 200× by light microscopy. Cells with visible sarcomere structures were analyzed, and the average number of cells counted was 171.8±5.8 per photo image. For the small cardiac cell counts, more than five sections from each heart were analyzed at a magnification of 400× using fluorescence microscopy. The average number of cells counted was 17.01±0.99 per photo image, and more than one hundred and fifty cells were analyzed from each heart. As quantification result is the averaged values calculated from the pictures taken from six border zone sections per heart, personal variation has been minimized. […]

[2] = tested on: Sca-1; assay: Quantitative RT-PCR of Sca-1 in infarct zone of MI heart; format: in vivo, mouse; settings: young mice, day 3 post-MI
Procedure: as §1
The total RNA isolated from the ischemic region or remote area of MI hearts was reverse transcribed using the SuperScript III (Invitrogen) system according to the manufacturer's protocol. For quantitative PCR, the SYBR Green reagent (Maestrogen) was used according to the manufacturer's protocol. The analysis of relative gene expression was performed using the 2̂[−delta delta Ct] method and sequence-specific primers designed for semi-quantitative PCR and real-time RT-PCR (FIG. 11).

## Cc1cccc(-c2[nH]ncc2-c2ccc3ncccc3n2)n1 [ALK5i]
[1]; aged mice, 1 μg per 1 g i.p. once per day from one day before surgery until day 10 post-MI, day 14 post-MI, P<0.01
  cardiomyocyte replenishment in comparison with the vehicle control group: restored cardiomyocyte replenishment

## CCCCC[C@H](O)/C=C/[C@@H]1[C@H]2C/C(=C/CCCC(=O)O)O[C@H]2C[C@H]1O [PGI2, prostaglandin I2]
[1]; border zone, 3.33 ng per 1 g i.p. twice daily for 14 days
  significant increase of cardiomyocyte replenishment compared to the vehicle control (in words): not

## COc1ccc2c(c1)c(CC(=O)O)c(C)n2C(=O)c1ccc(Cl)cc1 [indomethacin]
[1]; administered more than 5 days post-MI (Indo 9 D)
  stem cell-dependent cardiomyocyte reconstitution: no significant effect
[1]; border zone, Indo 14D (1 day before and 14 days after MI), 15 μg/ml in water, P<0.05
  drop of cardiomyocyte restoration rate: about 10%
[1]; border zone, given during the first 5 days post-MI (Indo 5 D), P<0.05
  cardiomyocyte replenishment: sufficient to impair cardiomyocyte replenishment
[1]; remote area, indomethacin in water
  MI-induced cardiomyocyte replenishment: abrogated
[2]
  Sca-1 expression: repressed
